The values below come from US10189813B2, “Formylated N-heterocyclic derivatives as FGFR4 inhibitors” (NOVARTIS AG, priority 2015, dated 2019).

Experiment [1] has as its target T1, FGFR4 (GST-FGFR4(388-802)) (Homo sapiens, UniProt P22455).
T1 construct: GST-FGFR4(388-802); GST (N); made in house; host or cells: insect cells
The experiment is described as follows: In-vitro biochemical kinase assay for FGFR4 (Caliper mobility shift). The following applies: 60 minutes at 30° C. As to the method: In-Vitro Biochemical Kinase Assays for FGFR4
All assays were performed in 384 well microtiter plates. Each assay plate contained 8-point serial dilutions for 40 test compounds, as well as four 8-point serial dilutions of staurosporine as reference compound, plus 16 high and 16 low controls.
(§1) Liquid handling and incubation steps were done on an Innovadyne Nanodrop Express equipped with a robotic arm (Thermo CatX, Caliper Twister II) and an incubator (Liconic STX40, Thermo Cytomat 2C450). The assay plates were prepared by addition of 50 nI per well of compound solution in 90% DMSO. […] Kinase reactions were incubated at 30° C. for 60 minutes and subsequently terminated by addition of 16 μl per well of stop solution (100 mM HEPES pH 7.5, 5% DMSO, 0.1% Caliper coating reagent, 10 mM EDTA, and 0.015% Brij35). Plates with terminated kinase reactions were transferred to the Caliper LC3000 workstations for reading. Phosphorylated and unphosphorylated peptides were separated using the Caliper microfluidic mobility shift technology. Briefly, samples from terminated kinase reactions were applied to the chip. Analytes are transported through the chip by constant buffer flow and the migration of the substrate peptide is monitored by the fluorescence signal of its label. Phosphorylated peptide (product) and unphosphorylated peptide (substrate) are separated in an electric field by their charge/mass ratio. Kinase activities were calculated from the amounts of formed phospho-peptide. IC50 values were determined from percent inhibition values at different compound concentrations by non-linear regression analysis.
Preparation of Compound Dilutions
Test compounds were dissolved in DMSO (10 mM) and transferred into 1.4 mL flat bottom or V-shaped Matrix tubes carrying a unique 2D matrix. The stock solutions were stored at […] if not used immediately. For the test procedure the vials were defrosted and identified by a scanner whereby a working sheet was generated that guided the subsequent working steps.
Compound dilutions were made in 96 well plates. This format enabled the assay of maximally 40 individual test compounds at 8 concentrations (single points) including 4 reference compounds. The dilution protocol included the production of “pre-dilution plates”, “master plates” and “assay plates”.
96 polypropylene well plates were used as pre-dilution plates. A total of 4 pre-dilution plates were prepared including 10 test compounds each on the plate positions A1-A10, one standard compound at A11 and one DMSO control at A12. All dilution steps were done on a HamiltonSTAR robot.
These plates were used directly for the assay which was performed in a total volume of 9.05 μL.

Another experiment concerns the target T2, FGFR3 (411-806) (Homo sapiens, UniProt P22607).
T2 construct: FGFR3 (411-806)
The experiment is described as follows: In vitro biochemical assay for FGFR3. Here is the method: as §1
(§2) In vitro biochemical assays for FGFR1 (407-822), FGFR2 (406-821) and FGFR3 (411-806) were conducted in a similar manner to the in vitro biochemical assay for FGFR4 described above, using the indicated portions of the kinase domains. The following examples all produced IC50 values >10000 nM in the biochemical FGFR1, FGFR2 and FGFR3 assays: 2, 3, 4, 11, 13, 16, 17, 18, 20, 28, 30.

The next experiment deals with T3, FGFR1 (407-822) (Homo sapiens, UniProt P11362).
T3 construct: FGFR1 (407-822)
T3 sequence (P11362 407-822): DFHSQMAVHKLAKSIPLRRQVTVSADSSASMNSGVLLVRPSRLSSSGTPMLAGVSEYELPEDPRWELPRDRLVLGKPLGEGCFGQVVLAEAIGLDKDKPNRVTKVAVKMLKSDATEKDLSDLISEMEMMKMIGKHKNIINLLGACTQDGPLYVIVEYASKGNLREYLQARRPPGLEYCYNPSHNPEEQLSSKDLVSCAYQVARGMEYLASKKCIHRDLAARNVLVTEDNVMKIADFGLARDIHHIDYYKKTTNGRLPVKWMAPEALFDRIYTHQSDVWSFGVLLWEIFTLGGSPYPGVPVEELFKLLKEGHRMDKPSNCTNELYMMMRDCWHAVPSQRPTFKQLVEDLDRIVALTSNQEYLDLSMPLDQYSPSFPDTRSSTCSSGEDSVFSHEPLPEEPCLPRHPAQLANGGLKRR
The experiment can be described thus: In vitro biochemical assay for FGFR1. Here is the method:
as §1, §2

Experiment [2] addresses BaF3-Tel-FGFR4 cells (TEL fused to cytoplasmic domain of FGFR4) (Homo sapiens, UniProt P22455). The experiment can be described thus: In vitro cellular kinase assay for FGFR4 (BaF3-Tel-FGFR4, MSD capture ELISA of tyrosine phosphorylation). Conditions: 1 hour incubation.
The subject of experiment [3] is HuH-7 hepatocellular carcinoma cells. The experiment is described as follows: CellTiter Glo (CTG) proliferation/viability assay. The experiment is classed as cell-based. The following applies: Homo sapiens, Huh-7, 72 h, HuH-7 cells, 3 days, half-maximal growth inhibition (GI50), read-out: HUH7 proliferation CTG. Here is the method:
CellTiter Glo (CTG) Assay:
The functional effect of compounds on cell proliferation is assessed using HuH-7 hepatocellular carcinoma cells obtained from the Japanese Collection of Research Bioresources Cell Bank (Cat# JCRB0403) and cultured in the vendor-recommended medium (DMEM high glucose (Amimed Cat#1-26F01-I), 10% foetal calf serum (Invitrogen Cat#16140-071), 1 mM sodium pyruvate (Amimed Cat#5-60F00-H), 1× Penicillin/Streptomycin (Amimed Cat#4-01F00-H)) at 37° C. in a humidified 5% CO2 incubator. Compound-mediated suppression of cell proliferation/viability is assessed by quantification of cellular ATP levels using the CellTiter-Glo (CTG) reagent (Promega, Cat# G7573). Briefly, cells are seeded at 3′000 cells/well/80 μl fresh medium into tissue-culture-treated 96-well plates (Costar Cat#3904), followed by addition of 20 μl medium containing compound dilutions at 5-fold their final intended concentration. Dose-response effects are assessed by 3-fold serial dilutions of the test compound, starting at 10 μM. Following incubation of the cells for 3 days at 37° C. and 5% CO2, the effect of inhibitors on cell viability is quantified following addition of 50 μl CTG and luminescence measurement (integration time: 500 ms) as per vendor manual, using a correspondingly equipped multi-mode plate reader (M200Pro, TECAN, Switzerland). For data analysis, the assay background value determined in wells containing medium, but no cells, is subtracted from all data points. To enable differentiation of cytotoxic from cytostatic compounds, the number of viable cells is assessed relative to that observed at the time of compound addition using a separate cell plate (day 0). The effect of a particular test compound concentration on cell proliferation/viability is expressed as percentage of the background- and day 0-corrected luminescence reading obtained for cells treated with vehicle only (DMSO, 0.1% f.c.), which is set as 100%, whereas the luminescence reading for wells containing medium only, but no cells, is set as −100%. Compound concentrations leading to half-maximal growth inhibition (GI50) are determined using standard four parameter curve fitting (XLfit 5.2., IDBS, UK).
For orientation: Cellular ATP, detected with luciferase, serves as a proxy for viable cell number.

In a further experiment the target is T4, FGFR2 (406-821) (Homo sapiens, UniProt P21802).
T4 construct: FGFR2 (406-821)
T4 sequence (P21802 406-821): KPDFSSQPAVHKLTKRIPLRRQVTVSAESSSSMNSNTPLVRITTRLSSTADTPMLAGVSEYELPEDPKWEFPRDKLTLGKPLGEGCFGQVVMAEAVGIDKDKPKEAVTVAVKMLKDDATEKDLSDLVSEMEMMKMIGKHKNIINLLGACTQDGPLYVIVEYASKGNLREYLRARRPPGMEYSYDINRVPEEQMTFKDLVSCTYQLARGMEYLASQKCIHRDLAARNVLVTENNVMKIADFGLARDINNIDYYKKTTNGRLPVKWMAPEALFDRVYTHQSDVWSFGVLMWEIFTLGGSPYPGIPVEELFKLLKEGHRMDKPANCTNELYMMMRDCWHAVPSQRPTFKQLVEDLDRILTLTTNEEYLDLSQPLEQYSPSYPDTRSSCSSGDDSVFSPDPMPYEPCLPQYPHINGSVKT
The experiment can be described thus: In vitro biochemical assay for FGFR2. Here is the method:
as §1, §2

Experiment [4] relates to HuH-7 hepatocellular carcinoma cells. The experiment can be described thus: Methylene blue staining proliferation assay (MBS). The experiment is classed as cell-based. The following applies: Homo sapiens, HuH-7 cells, 72 hours, read-out: HUH7 proliferation MBS. As to the method: Methylene Blue Staining Proliferation Assay (MBS):
The effect of compounds on cell proliferation is assessed using HuH-7 hepatocellular carcinoma cells obtained from the Japanese Collection of Research Bioresources Cell Bank (Cat# JCRB0403) and cultured in the vendor-recommended medium (DMEM high glucose (Amimed Cat#1-26F01-I), 10% foetal calf serum (Invitrogen Cat#16140-071), 1 mM sodium pyruvate (Amimed Cat#5-60F00-H), 1× Penicillin/Streptomycin (Amimed Cat#4-01F00-H)) at 37° C. in a humidified 5% CO2 incubator. […] 72 hours after compound addition, cells were fixed by adding 25 μL/well of 20% glutaraldehyde (Sigma Aldrich Cat# G400-4) and incubated for 10 minutes at room temperature. Cells were washed three times with H2O, 200 μL/well and stained with 100 μL/well 0.05% methylene blue (ABCR GmbH Cat# AB117904) for 10 minutes at room temperature. Cells were washed 3 times with H2O, 200 μL/well and then lysed by adding 200 μL/well of 3% HCl (Fluka Cat#84422) for 30 minutes at room temperature with shaking. Optical density was measured at A650 nm. The concentration of compound providing 50% of proliferation inhibition with respect to DMSO-treated cells was determined (IC50) using XLFit software.

pIC50: −log10 of the molar value.

T1 sequence (P22455 388-802): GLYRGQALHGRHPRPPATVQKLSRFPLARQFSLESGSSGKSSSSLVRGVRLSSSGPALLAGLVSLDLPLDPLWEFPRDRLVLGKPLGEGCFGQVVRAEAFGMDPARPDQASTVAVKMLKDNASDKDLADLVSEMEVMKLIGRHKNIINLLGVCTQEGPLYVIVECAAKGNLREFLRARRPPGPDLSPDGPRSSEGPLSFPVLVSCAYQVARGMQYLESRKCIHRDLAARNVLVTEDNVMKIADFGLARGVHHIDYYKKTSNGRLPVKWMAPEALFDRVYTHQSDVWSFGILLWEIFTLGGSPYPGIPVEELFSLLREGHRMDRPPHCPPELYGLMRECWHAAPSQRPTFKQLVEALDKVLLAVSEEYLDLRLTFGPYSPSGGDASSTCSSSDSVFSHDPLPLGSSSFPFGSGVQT
T2 sequence (P22607 411-806): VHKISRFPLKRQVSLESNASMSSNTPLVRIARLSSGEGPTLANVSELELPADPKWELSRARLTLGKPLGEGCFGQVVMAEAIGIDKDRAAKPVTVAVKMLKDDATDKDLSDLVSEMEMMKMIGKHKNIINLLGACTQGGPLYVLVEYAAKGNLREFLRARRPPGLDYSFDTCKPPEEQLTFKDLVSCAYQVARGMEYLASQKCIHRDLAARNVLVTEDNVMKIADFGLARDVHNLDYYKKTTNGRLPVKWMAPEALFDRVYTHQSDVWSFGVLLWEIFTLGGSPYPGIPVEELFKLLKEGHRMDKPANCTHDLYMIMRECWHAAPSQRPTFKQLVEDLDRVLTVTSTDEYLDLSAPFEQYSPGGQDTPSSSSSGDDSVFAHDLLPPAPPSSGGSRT
Sequence of BaF3-Tel-FGFR4 cells (TEL fused to cytoplasmic domain of FGFR4) (P22455 with tags, fused parts or gaps): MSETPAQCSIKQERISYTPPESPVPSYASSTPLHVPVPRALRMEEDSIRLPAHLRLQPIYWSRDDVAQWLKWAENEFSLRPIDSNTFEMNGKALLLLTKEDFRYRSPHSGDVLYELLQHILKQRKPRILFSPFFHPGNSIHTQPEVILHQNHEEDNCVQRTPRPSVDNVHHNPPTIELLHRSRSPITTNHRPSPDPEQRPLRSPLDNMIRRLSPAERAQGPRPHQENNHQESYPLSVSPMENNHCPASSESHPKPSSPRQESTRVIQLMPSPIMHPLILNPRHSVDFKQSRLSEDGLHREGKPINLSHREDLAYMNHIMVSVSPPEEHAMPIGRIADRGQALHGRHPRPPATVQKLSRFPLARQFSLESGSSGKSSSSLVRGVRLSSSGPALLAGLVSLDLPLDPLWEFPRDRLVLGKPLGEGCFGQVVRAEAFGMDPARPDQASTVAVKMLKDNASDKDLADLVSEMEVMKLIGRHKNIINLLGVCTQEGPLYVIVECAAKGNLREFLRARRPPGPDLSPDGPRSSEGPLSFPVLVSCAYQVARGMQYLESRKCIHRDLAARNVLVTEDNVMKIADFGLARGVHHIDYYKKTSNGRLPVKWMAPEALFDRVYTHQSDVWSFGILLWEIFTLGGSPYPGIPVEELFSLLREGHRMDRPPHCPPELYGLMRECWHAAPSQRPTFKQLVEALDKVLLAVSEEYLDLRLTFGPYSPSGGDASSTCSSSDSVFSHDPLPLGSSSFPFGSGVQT

Turning to `COCCNc1cc(NC(=O)N(C)c2ccc(C(F)F)c(C=O)n2)ncc1C#N` [Example 16, 3-(5-cyano-4-((2-methoxyethyl)amino)pyridin-2-yl)-1-(5-(difluoromethyl)-6-formylpyridin-2-yl)-1-methylurea], the pIC50 in experiment [1] was 8.57; on FGFR3 (411-806), below 5.00; against FGFR1 (407-822), below 5.00; in experiment [2], 8.11; in experiment [3], 7.05; against FGFR2 (406-821), below 5.00. For the same compound, in experiment [4], the pIC50 was 7.29.

Regarding `CC(C)Oc1cc(NC(=O)N(C)c2ccc(C(F)F)c(C=O)n2)ncc1C#N` [Example 18, 3-(5-cyano-4-isopropoxypyridin-2-yl)-1-(5-(difluoromethyl)-6-formylpyridin-2-yl)-1-methylurea], the pIC50 in experiment [1] is 8.72; at FGFR3 (411-806), below 5.00; on FGFR1 (407-822), below 5.00; in experiment [2], 7.60; in experiment [3] it was 6.33; against FGFR2 (406-821), below 5.00. For the same compound, the pIC50 in experiment [4] is 6.72.
